PubChem BioAssay AID330 (DTP/NCI, 2004)
Several values for one entry are separate records, joined by “and”; a condition that tells them apart may be missing. Identical values can stand only once. Inconclusive results and toxic doses are left out. Rule for the calls: active = survival T/C of 150% or more; inactive = T/C below 125% in these data. Bridge positions count the residues as written; N and C are the ends. Square brackets hold non-standard residues; d marks the D form. Peptide text beside a SMILES is read from it. * marks the point of attachment. Cbz = O=C(OCc1ccccc1)*; Ava = NCCCCC(=O)O

Test system: P388 leukemia ip, CD2F1 mice, survival T/C
Assay: NCI In Vivo Anticancer Drug Screen. Data for tumor model P388 Leukemia (intraperitoneal) in CD2F1 (CDF1) mice
Details: endpoint: median survival time, higher = longer survival
Method in brief: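 Mice carrying the transplanted tumor received test compound or vehicle. Survival was recorded in each group, and the value is the treated-group measurement divided by that of the vehicle-treated control group.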

[1] = dose: 50.0 mg/kg/injection, schedule: Q01DX005 (ip), vehicle: saline with Tween-80
[2] = dose: 100.0 mg/kg/injection, schedule: Q01DX005 (ip), vehicle: saline with Tween-80
[3] = dose: 50.0 mg/kg/injection, schedule: Q01DX009 (ip), vehicle: saline
[4] = dose: 100.0 mg/kg/injection, schedule: Q01DX009 (ip), vehicle: saline
[5] = dose: 200.0 mg/kg/injection, schedule: Q01DX009 (ip), vehicle: saline
[6] = dose: 12.5 mg/kg/injection, schedule: Q01DX009 (ip), vehicle: saline
[7] = dose: 25.0 mg/kg/injection, schedule: Q01DX009 (ip), vehicle: saline
[8] = dose: 50.0 mg/kg/injection, schedule: Q01DX005 (ip), vehicle: Klucel (hydroxypropylcellulose) (HPC)
[9] = dose: 100.0 mg/kg/injection, schedule: Q01DX005 (ip), vehicle: Klucel (hydroxypropylcellulose) (HPC)
[10] = dose: 200.0 mg/kg/injection, schedule: Q01DX005 (ip), vehicle: Klucel (hydroxypropylcellulose) (HPC)
[11] = dose: 50.0 mg/kg/injection, schedule: Q01DX009 (ip), vehicle: saline with Tween-80
[12] = dose: 100.0 mg/kg/injection, schedule: Q01DX009 (ip), vehicle: saline with Tween-80
[13] = dose: 200.0 mg/kg/injection, schedule: Q01DX009 (ip), vehicle: saline with Tween-80
[14] = dose: 200.0 mg/kg/injection, schedule: Q01DX005 (ip), vehicle: saline with Tween-80

Measured: T/C

COC(=O)C1=C/CCCN(CCc2ccccc2)/C=C\1C(=O)OC
inactive: dose: 100.0 mg/kg/injection, schedule: Q01DX001 (ip), vehicle: alcohol 103 % of control | dose: 200.0 mg/kg/injection, schedule: Q01DX001 (ip), vehicle: alcohol 101 % of control | dose: 400.0 mg/kg/injection, schedule: Q01DX001 (ip), vehicle: alcohol 97 % of control

O=C1c2ccccc2C(=O)N1CCC(=O)n1ccnc1
inactive: dose: 17.5 mg/kg/injection, schedule: Q01DX005 (ip), vehicle: Klucel (hydroxypropylcellulose) (HPC) 104 % of control | dose: 35.0 mg/kg/injection, schedule: Q01DX005 (ip), vehicle: Klucel (hydroxypropylcellulose) (HPC) 97 % of control | dose: 70.0 mg/kg/injection, schedule: Q01DX005 (ip), vehicle: Klucel (hydroxypropylcellulose) (HPC) 99 % of control

O=C(Nc1ccccc1-c1ccccc1)C(=O)Nc1ccccc1-c1ccccc1
inactive: [1] 90 % of control | [2] 89 % of control

OC(CCl)Cc1ccccc1 (stereo not given)
inactive: dose: 25.0 mg/kg/injection, schedule: Q04DX003 (ip), vehicle: saline with Tween-80 104 % of control | dose: 50.0 mg/kg/injection, schedule: Q04DX003 (ip), vehicle: saline with Tween-80 100 % of control | dose: 100.0 mg/kg/injection, schedule: Q04DX003 (ip), vehicle: saline with Tween-80 100 % of control

CC1=CC(O)CC(C)(C)C1 (stereo not given)
inactive: [3] 106 % of control | [4] 100 % of control | [5] 99 % of control

CC(=O)Oc1cc2c(c3ccccc13)OC(=O)CCCCCCCCCCC2=O
inactive: dose: 100.0 mg/kg/injection, schedule: Q04DX002 (ip), vehicle: Klucel (hydroxypropylcellulose) (HPC) 93 % of control | dose: 200.0 mg/kg/injection, schedule: Q04DX002 (ip), vehicle: Klucel (hydroxypropylcellulose) (HPC) 118 % of control | dose: 400.0 mg/kg/injection, schedule: Q04DX002 (ip), vehicle: Klucel (hydroxypropylcellulose) (HPC) 107 % of control

CCN1C(=O)C(=O)c2ccccc21
inactive: dose: 18.75 mg/kg/injection, schedule: Q01DX009 (ip), vehicle: saline with Tween-80 96 % of control | dose: 18.75 mg/kg/injection, schedule: Q01DX009 (ip), vehicle: saline 107 % of control | dose: 37.5 mg/kg/injection, schedule: Q01DX009 (ip), vehicle: saline with Tween-80 96 % of control | dose: 37.5 mg/kg/injection, schedule: Q01DX009 (ip), vehicle: saline 102 % of control and 110 % of control | dose: 75.0 mg/kg/injection, schedule: Q01DX009 (ip), vehicle: saline with Tween-80 100 % of control | dose: 75.0 mg/kg/injection, schedule: Q01DX009 (ip), vehicle: saline 104 % of control and 105 % of control

CC(C)=CC(=O)NCCO
inactive: dose: 100.0 mg/kg/injection, schedule: Q04DX002 (ip), vehicle: saline 100 % of control | dose: 200.0 mg/kg/injection, schedule: Q04DX002 (ip), vehicle: saline 100 % of control | dose: 400.0 mg/kg/injection, schedule: Q04DX002 (ip), vehicle: saline 105 % of control

C=C(CC(=O)O)C(=O)O (tested in a mixture with another compound)
inactive: [6] 100 % of control | [7] 100 % of control | [3] 100 % of control

Clc1ccc2nc(Cl)[nH]c2c1
inactive: [8] 102 % of control | [9] 100 % of control | [10] 99 % of control

CC(C)(C)C(=O)CC(Cc1nccc2ccccc12)c1ccco1 (stereo not given)
inactive: [11] 113 % of control | [12] 106 % of control | [13] 97 % of control

CN(C)[C@@H]1C(=O)C(C(N)=O)=C(O)[C@@]2(O)C(=O)C3=C(O)c4c(O)cccc4C[C@H]3C[C@@H]12
inactive: dose: 7.5 mg/kg/injection, schedule: Q01DX010 (ip), vehicle: saline 115 % of control | dose: 15.0 mg/kg/injection, schedule: Q01DX010 (ip), vehicle: saline 120 % of control

O=C1c2ccccc2C(=O)N1CCCN1CCOCCOCCN(CCCN2C(=O)c3ccccc3C2=O)CCOCC1
inactive: dose: 50.0 mg/kg/injection, schedule: Q01DX005 (ip), vehicle: saline + Tween-80 + alcohol 105 % of control | dose: 100.0 mg/kg/injection, schedule: Q01DX005 (ip), vehicle: saline + Tween-80 + alcohol 97 % of control

CC1(O)C(=O)OC(CO)C1O (stereo not given)
inactive: [1] 102 % of control | [2] 102 % of control | [14] 100 % of control

O=C1CSC(=O)N1c1ccc(F)cc1
inactive: dose: 6.25 mg/kg/injection, schedule: Q01DX009 (ip), vehicle: saline 98 % of control | [6] 113 % of control | [7] 114 % of control | [11] 106 % of control | [12] 104 % of control | [13] 87 % of control

CC12CC=CCC1CCC1C2CCC2(C)C(O)C(O)CC12 (stereo not given)
inactive: [8] 101 % of control | [9] 95 % of control | [10] 93 % of control

CCOP(=O)(CC1OCCCO1)OCC
inactive: [3] 98 % of control | [4] 100 % of control | [5] 102 % of control

O=C1NC(O)c2cc([N+](=O)[O-])ccc2O1 (stereo not given)
inactive: [1] 100 % of control and 107 % of control | [2] 102 % of control and 115 % of control | [14] 100 % of control and 120 % of control

CC(=O)/C(=C\c1ccc(/C=C(\C(C)=O)C(=O)CCN(C)C)cc1)C(=O)CCN(C)C
inactive: [1] 109 % of control and 118 % of control | [2] 120 % of control | [14] 105 % of control | dose: 400.0 mg/kg/injection, schedule: Q01DX005 (ip), vehicle: saline with Tween-80 120 % of control

OCC1OC(O)C2OCCOCCOC3C(O)C(CO)OC(O)C3OCCOCCOC2C1O (stereo not given)
inactive: dose: 60.0 mg/kg/injection, schedule: Q01DX005 (ip), vehicle: saline 101 % of control | dose: 120.0 mg/kg/injection, schedule: Q01DX005 (ip), vehicle: saline 95 % of control | dose: 240.0 mg/kg/injection, schedule: Q01DX005 (ip), vehicle: saline 97 % of control

CC1NC(=O)C(NC(=O)OCc2ccccc2)COC(=O)C(C(C)C)NC(=O)CCCCNC1=O (stereo not given) (Cbz-SA[Ava]V; ester 1-C; configuration not given here)
inactive: dose: 100.0 mg/kg/injection, schedule: Q04DX002 (ip), vehicle: saline with Tween-80 100 % of control | dose: 200.0 mg/kg/injection, schedule: Q04DX002 (ip), vehicle: saline with Tween-80 104 % of control | dose: 400.0 mg/kg/injection, schedule: Q04DX002 (ip), vehicle: saline with Tween-80 104 % of control

Cc1nn(C(=S)S)c(C)c1N=Nc1ccc(O)cc1
inactive: [1] 100 % of control | [2] 102 % of control | [14] 101 % of control

COc1ccccc1P(=O)(CCP(=O)(c1ccccc1)c1ccccc1OC)c1ccccc1 (stereo not given)
inactive: [8] 103 % of control | [9] 97 % of control | [10] 91 % of control

C=C(C1=CC(=O)C(C)=C(OC(=O)C2(C)OC2C)C1=O)C(CC=C(C)C)OC(=O)/C(C)=C/C (stereo not given)
inactive: dose: 1.56 mg/kg/injection, schedule: Q01DX005 (ip), vehicle: Klucel (hydroxypropylcellulose) (HPC) 97 % of control | dose: 3.12 mg/kg/injection, schedule: Q01DX005 (ip), vehicle: Klucel (hydroxypropylcellulose) (HPC) 97 % of control | dose: 6.25 mg/kg/injection, schedule: Q01DX005 (ip), vehicle: Klucel (hydroxypropylcellulose) (HPC) 99 % of control | dose: 12.5 mg/kg/injection, schedule: Q01DX005 (ip), vehicle: Klucel (hydroxypropylcellulose) (HPC) 99 % of control | dose: 25.0 mg/kg/injection, schedule: Q01DX005 (ip), vehicle: Klucel (hydroxypropylcellulose) (HPC) 99 % of control

CC(/C=C/c1ccccc1)=N\Nc1ccccc1
inactive: [11] 118 % of control | [12] 110 % of control and 112 % of control | dose: 132.0 mg/kg/injection, schedule: Q01DX009 (ip), vehicle: saline with Tween-80 100 % of control | [13] 100 % of control and 110 % of control and 121 % of control | dose: 300.0 mg/kg/injection, schedule: Q01DX009 (ip), vehicle: saline with Tween-80 107 % of control | dose: 400.0 mg/kg/injection, schedule: Q01DX009 (ip), vehicle: saline with Tween-80 106 % of control

N#Cc1ccc(OC(=O)Nc2c(Br)cc(Br)cc2Br)cc1
inactive: dose: 60.0 mg/kg/injection, schedule: Q01DX005 (ip), vehicle: saline with Tween-80 93 % of control | dose: 120.0 mg/kg/injection, schedule: Q01DX005 (ip), vehicle: saline with Tween-80 99 % of control | dose: 240.0 mg/kg/injection, schedule: Q01DX005 (ip), vehicle: saline with Tween-80 99 % of control

O=P1(CNc2ccccc2)CN(c2ccccc2)CN(c2ccccc2)C1
inactive: dose: 12.5 mg/kg/injection, schedule: Q01DX001 (ip), vehicle: saline with Tween-80 100 % of control | dose: 25.0 mg/kg/injection, schedule: Q01DX001 (ip), vehicle: saline with Tween-80 100 % of control | dose: 50.0 mg/kg/injection, schedule: Q01DX001 (ip), vehicle: saline with Tween-80 100 % of control
